The results in this text go back to US8563741B2, “CDK inhibitors containing a zinc binding moiety” (Curis, Inc., priority 2007, dated 2013).

Data set [1] concerns the target T1, CDK2/cyclinE (Homo sapiens, UniProt P24941).
T1 construct: C-terminal 6His-tagged, recombinant full-length CDK2 (MW=34 kDa); 6His (C); made in house; host or cells: Sf21 cells (baculovirus)
As to the kind of experiment: CDK activity assay with p33 ATP, CDK2/cyclinE. Format: biochemical. The note with it: 1 μM ATP. The method, then: CDK2/cyclinE (Accession Number for CDK2; EMBL M68520, for cyclinE1; GenBank NM_001238):
C-terminal 6His-tagged, recombinant full-length CDK2 (MW=34 kDa) in complex with N-terminal GST-tagged, recombinant full-length cyclinE1 (MW=74 kDa) were expressed with baculovirus system in Sf21 cells. Recombinant proteins were purified using Ni2+/NTA agarose and the purity of recombinant protein complex was measured to be around 76% by SDS-PAGE and Coomassie blue staining. Specific Activity of recombinant CDK2/cyclinE was 1336 U/mg, where one unit of CDK2/cylinE1 activity is defined as 1 nmol phosphate incorporated into 0.1 mg/ml histone H1 per minute at 30° C. with a final ATP concentration of 100 μM. Enzyme was stored with concentration of 0.1 mg/ml in 50 mM Tris/HCl pH 7.5, 150 mM NaCl, 0.03% Brij-35, 0.1 mM EGTA, 0.2 mM PMSF, 1 mM benzamidine, 0.1% 2-mercaptoethanol, 270 mM sucrose.

Data set [2] has as its system HDAC. As to the kind of experiment: HDAC fluorimetric assay kit (AK-500, Biomol), HeLa nuclear extract. Format: biochemical. As to the method: HDAC inhibitors were screened using an HDAC fluorimetric assay kit (AK-500, Biomol, Plymouth Meeting, Pa.). […] Each assay was setup as follows: Defrosted all kit components and kept on ice until use. Diluted HeLa nuclear extract 1:29 in Assay Buffer (50 mM Tris/Cl, pH 8.0, 137 mM NaCl, 2.7 mM KCl, 1 mM MgCl2). Prepared dilutions of Trichostatin A (TSA, positive control) and tested compounds in assay buffer (5× of final concentration). Diluted Fluor de LysTM Substrate in assay buffer to 100 uM (50 fold=2× final). Diluted Fluor de LysTM developer concentrate 20-fold (e.g. 50 μl plus 950 μl Assay Buffer) in cold assay buffer. Second, diluted the 0.2 mM Trichostatin A 100-fold in the 1× Developer (e.g. 10 μl in 1 ml; final Trichostatin A concentration in the 1× Developer=2 μM; final concentration after addition to HDAC/Substrate reaction=1 μM). Added Assay buffer, diluted trichostatin A or test inhibitor to appropriate wells of the microtiter plate. Added diluted HeLa extract or other HDAC sample to all wells except for negative controls. Allowed diluted Fluor de LysTM Substrate and the samples in the microtiter plate to equilibrate to assay temperature (e.g. 25 or 37° C. Initiated HDAC reactions by adding diluted substrate (25 μl) to each well and mixing thoroughly. Allowed HDAC reactions to proceed for 1 hour and then stopped them by addition of Fluor de LysTM Developer (50 μl). Incubated plate at room temperature (25° C.) for 10-15 min. Read samples in a microtiter-plate reading fluorimeter capable of excitation at a wavelength in the range 350-380 nm and detection of emitted light in the range 440-460 nm.

Data set [3] addresses T2, CDK6/cyclinD3 (Homo sapiens, UniProt Q00534).
T2 construct: N-terminal, 6His-tagged full-length human cdk6 (MW=38 kDa); 6His (N); made in house; host or cells: Sf21 cells
As to the kind of experiment: CDK activity assay with p33 ATP, CDK6/cyclinD3. Format: biochemical. The note with it: 1 μM ATP; read-out: CDK6/cyclinD IC50. The method, then: CDK6/cyclinD3 (Accession Number for CDK6; GenBank X66365, for Cyclin D3; EMBL M90814):
N-terminal, 6His-tagged full-length human cdk6 (MW=38 kDa) complexed with N-terminal GST-tagged full-length human cyclin D3 (MW=59 kDa) were expressed in Sf21 cells. Recombinant protein complex was purified using glutathione-agarose and activated with CAK, and repurified with Ni2+/NTA-agarose column. Purity was measured to be at least 68%. Specific Activity was measured to be 39 U/mg, where one unit of cdk6/cyclinD3 activity is defined as 1 nmol phosphate incorporated into 0.1 mg/ml histone H1 per minute at 30° C. with a final ATP concentration of 100 μM. Enzyme was stored at concentration of 0.1 mg/ml in 50 mM Tris-HCl, pH 7.5, 270 mM sucrose, 150 mM NaCl, 1 mM benzamidine, 0.2 mM PMSF, 0.1% 2-mercaptoethanol, 0.1 mM EGTA, 0.03% Brij 35.

T2 sequence (Q00534 whole entry): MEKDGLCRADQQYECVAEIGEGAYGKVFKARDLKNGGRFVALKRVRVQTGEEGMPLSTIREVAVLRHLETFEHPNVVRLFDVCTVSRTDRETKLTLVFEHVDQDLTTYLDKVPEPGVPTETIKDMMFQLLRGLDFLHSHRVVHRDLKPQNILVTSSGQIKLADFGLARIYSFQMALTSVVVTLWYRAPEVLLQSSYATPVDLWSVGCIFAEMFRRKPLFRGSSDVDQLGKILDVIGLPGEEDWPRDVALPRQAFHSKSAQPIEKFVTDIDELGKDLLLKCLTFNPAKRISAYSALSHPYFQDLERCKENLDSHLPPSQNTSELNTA
T2 sequence (P30281 whole entry partner): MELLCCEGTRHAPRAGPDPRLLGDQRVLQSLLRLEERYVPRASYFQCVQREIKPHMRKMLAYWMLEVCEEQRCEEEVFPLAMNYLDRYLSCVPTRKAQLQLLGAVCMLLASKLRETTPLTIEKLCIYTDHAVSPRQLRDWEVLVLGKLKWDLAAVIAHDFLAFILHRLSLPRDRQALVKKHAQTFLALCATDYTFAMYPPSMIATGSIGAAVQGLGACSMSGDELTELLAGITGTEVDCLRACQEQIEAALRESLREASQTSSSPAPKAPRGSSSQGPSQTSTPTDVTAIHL

On to `CC(C)(C)c1cnc(CSc2cnc(NC(=O)CCCC(=O)NO)s2)o1` [Compound 5, N^1-(5-((5-tert-butyloxazol-2-yl)methylthio)thiazol-2-yl)-N^5-hydroxyglutaramide], for which the IC50 is < 100 nM in data set [1], 100 to 1000 nM in data set [2] and 100 to 1000 nM in data set [3].

Turning to `CC(C)(C)c1cnc(CSc2cnc(NC(=O)CCCCC(=O)NO)s2)o1` [Compound 6, N^1-(5-((5-tert-butyloxazol-2-yl)methylthio)-thiazol-2-yl)-N^6-hydroxyadipamide], the values for the IC50 in data set [1], in data set [2] and in data set [3] were < 100 nM, 100 to 1000 nM and 100 to 1000 nM, respectively.

As to `CC(C)(C)c1cnc(CSc2cnc(NC(=O)CCCNCCC(=O)NO)s2)o1` [Compound 13, N-(5-((5-tert-butyloxazol-2-yl)methylthio)thiazol-2-yl)-4-(3-(hydroxyamino)-3-oxopropylamino)butanamide], the IC50 in data set [1] is < 100 nM; in data set [2], > 10000 nM; in data set [3], 100 to 1000 nM.

For `CC(C)(C)c1cnc(CSc2cnc(NC(=O)Cc3ccc(OCCC(=O)NO)cc3)s2)o1` [Compound 23, 3-(4-(2-(5-((5-tert-butyloxazol-2-yl)methylthio)-thiazol-2-ylamino)-2-oxoethyl)phenoxy)-N-hydroxypropanamide], the melting point – broadly, the temperature, or range, at which the solid turns liquid – was in the range of 93 to 95 °C. For the same molecule, in data set [1], the IC50 is < 100 nM. The IC50 in data set [2] was < 100 nM.
